Results from patent US20080311126A1, “Antisense Oligonucleotides Directed to Ribonucleotide Reducatase R2 and Uses Thereof in Combination Therapies for the Treatment of Cancer” (Genesense Technologies, Inc, priority 2004, published 2008).
Entries after “also recorded” stand apart in the source; their conditions may differ.

Assays:
[1] = system: MDA-MB-231 human breast cancer cells; test: MDA-MB-231 breast tumour xenograft in CD-1 nude mice; assay type: in vivo
Procedure: MDA-MB-231 human breast cancer cells (1×10^7 cells in 100 μl of PBS) were subcutaneously injected into the right flank of 6-7 weeks old female CD-1 nude mice. After the size of tumour reached an approximate volume of 100 mm^3, 5 days post tumour cell injection, SEQ ID NO:1, or the scrambled control oligonucleotide (SEQ ID NO:3) were administered by bolus infusion into the tail vein every other day at 10 mg/kg. Control animals received saline alone for the same period. Antitumour effect of SEQ ID NO:1 was further compared to that of taxol or doxorubicin alone or in combination. Taxol was administered intravenously once a week at a dose of 10 mg/kg for three (FIG. 17A) or four weeks (FIG. 17C). Doxorubicin was administered intravenously once a week at a dose of 5 mg/kg for first three weeks (FIG. 17A) or for two weeks (FIG. 17C). All treatments were stopped at day 33 (FIG. 17A) or at day 26 (FIG. 17C), respectively. A day after the last treatment, tumours were excised from the animals and their weights were measured. […] In FIG. 17C, antitumour activities were estimated by the inhibition of tumour volume, which was measured with calipers. Each point represents mean tumour volume calculated from 10 animals per experimental group.

[2] = system: HepG2 hepatocellular carcinoma; test: Relative colony forming efficiency (Example 17, Table 13); assay type: cell-based, human; settings: averages of 2-8 determinations
In short: (§1)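 0.2 μM oligo (default) + 2.5 μg Lipofectin, 4 h exposure; methylene blue stain, colonies counted; vs lipofectin-alone control, reported as % inhibition.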

[3] = system: MDA-MB-231 breast cell adenocarcinoma; test: as above; assay type: cell-based, human; settings: averages of 2-8 determinations
In short: as §1

[4] = system: HCT116 colon cell carcinoma; test: as above; assay type: cell-based, human; settings: averages of 2-8 determinations
In short: as §1

A549 lung cell carcinoma = test: as above; assay type: cell-based, human; settings: averages of 2-8 determinations
In short: as §1

[5] = system: T-47D breast ductal carcinoma; test: as above; assay type: cell-based, human; settings: averages of 2-8 determinations
In short: as §1

[6] = system: MDA PaCa-2 pancreatic cell carcinoma; test: as above; assay type: cell-based, human; settings: MIA PaCa-2 pancreatic cell carcinoma; averages of 2-8 determinations
In short: as §1

[7] = system: T24 bladder cell carcinoma; test: as above; assay type: cell-based, human; settings: averages of 2-8 determinations
In short: as §1

[8] = system: PC-3 prostrate cell adenocarcinoma; test: as above; assay type: cell-based, human; settings: averages of 2-8 determinations
In short: as §1

[9] = system: Caki-1 human renal cancer cells; test: Caki-1 renal tumour xenograft in SCID mice, SEQ ID NO:1 and chemotherapeutics; assay type: in vivo
Procedure: Caki-1 human renal cancer cells (1×10^7 cells in […] of PBS) were subcutanteously injected into the right flank of 6-7 weeks old female SCID mice. After the size of tumour reached an approximate volume of 200 mm^3, 7 days post tumour cell injection, SEQ ID NO:1 was administered by bolus infusion into the tail vein every other day at 10 mg/kg. Control animals received saline alone for the same period. The antitumour effect of SEQ ID NO:1 was further compared to that of two chemotherapeutic agents: 5-FU and vinblastine. 5-FU was administered intraperitoneally at days 7-13, 21-27 and 35-36 with a dose of 13 mg/kg/day, while vinblastin was administered intraperitoneally at days 7, 14, 21, 28 and 35 at a dose of 0.6 mg/kg/week. Antitumour effects of each of these compounds were further compared to those of SEQ ID NO:1 in combination with 5-FU or with vinblastin. The two chemotherapeutic agents were applied as described above, one hour after the treatments with SEQ ID NO:1 when combination treatments occurred on the same day. All treatments were stopped at day 36. A day after the last treatment, tumours were excised from the animals and their weights were measured.

Mouse Fibrosarcoma = test: Tumour growth assay, mouse fibrosarcoma in C3H mice; assay type: in vivo
[10] = system: LS513 multi-drug resistant colon carcinoma cells; test: LS513 multi-drug resistant colon carcinoma xenograft in SCID mice; assay type: in vivo, human
Procedure: LSS13 multi-drug resistant colon carcinoma cells (1×10^7 cells in 100 μl of PBS) were subcutaneously injected into the right flank of 6-7 weeks old female SCID mice. After the size of tumour reached an approximate volume of […], 8 days post tumour cell injection, SEQ ID NO:1 was administered by bolus infusion into the tail vein every other day at 10 mg/kg. Control animals received saline alone for the same period. Antitumour effect of SEQ ID NO:1 was further compared to that of CPT-11 alone or in combination. CPT-11 was administered i.p. for 5 days at a dose of 20 mg/kg/day. Antitumour activities were estimated by the inhibition of tumour volume, which was measured with caliper. Each point represents mean tumour volume calculated from 10 animals per experimental group. Tumour weights were measured after animals were sacrificed at the end of the treatment. These cells are not resistant to CPT-11 which was used as a positive control.

Sequence: GGCTAAATCGCTCCACCAAG (chemistry not given here) [SEQ ID NO: 1, antisense oligonucleotide that hybridizes to the coding region of human ribonucleotide reductase R2 mRNA]
- Tumour weight as % of saline control ([1]; MDA-MB-231 (breast), Mouse CD-1): 12.6%
- antitumour effect (tumour weight, tumour volume) ([1]; oligonucleotide 10 mg/kg every other day i.v., taxol 10 mg/kg, doxorubicin 5 mg/kg i.v. once a week): delay of tumour growth compared to saline control in all three experiments; also recorded: superior to the inhibitory effects observed with taxol or doxorubicin alone
- Reduced relative colony forming efficiency, HepG2 (% inhibition of colony forming ability) [2]: 75.89%
- Reduced relative colony forming efficiency, MDA-MB-231 (% inhibition of colony forming ability) [3]: 90.21%
- Reduced relative colony forming efficiency, HCT116 (% inhibition of colony forming ability) [4]: 70.46%
- Reduced relative colony forming efficiency, A549 (% inhibition of colony forming ability) (A549 lung cell carcinoma): 95.14%
- Reduced relative colony forming efficiency, T-47D (% inhibition of colony forming ability) [5]: 66.12%
- Reduced relative colony forming efficiency, MIA PaCa-2 (% inhibition of colony forming ability) [6]: 75.62%
- Reduced relative colony forming efficiency, T24 (% inhibition of colony forming ability) [7]: 76.79%
- Reduced relative colony forming efficiency, PC-3 (% inhibition of colony forming ability) [8]: 83.23%
- Tumour weight as % of saline control ([9]; Caki (renal), Mouse CD-1): 3.3%
- antitumour effect (tumour weight) ([9]; SEQ ID NO:1 10 mg/kg every other day i.v., 5-FU 13 mg/kg/day i.p., vinblastin 0.6 mg/kg/week i.p.): significant delay of tumour growth; also recorded: superior to the inhibitory effects observed with each of two chemotherapeutic compounds
- Inhibition of tumour volume (Mouse Fibrosarcoma; C3H mice, Day 15 after tumour implantation): mice by approximately 80% on Day 15
- dose dependence of decrease in tumour weight (Mouse Fibrosarcoma; C3H mice, doses of 0.5 to 30 mg/kg): Dose-dependent decrease in tumour
- Inhibition of tumour weight (Mouse Fibrosarcoma; Mouse Fibrosarcoma): approximately 80%
- Tumour weight as % of saline control ([10]; LS513 (colon) multi-drug resistant (CPT-11 sensitive), SCID): 49%
- antitumour effect (tumour volume, tumour weight) ([10]; SEQ ID NO:1 10 mg/kg every other day, CPT-11 20 mg/kg/day i.p. 5 days): significant delay of tumour growth; also recorded: as effective as CPT-11
